Experimental data from patent publication EP3345917A1, “ANTIPROTOZOAL COMPOUNDS” (Bacoba AG, priority 2017, dated 2018).
Where two headings read alike, the source gives them in different places. Non-standard residues stand in square brackets, D forms with d. Residues, ends and D or L forms follow the SMILES beside them. *: point of attachment. CH3O(CH2CH2O)11CH2CH2CO = COCCOCCOCCOCCOCCOCCOCCOCCOCCOCCOCCOCCC(=O)*; Hexenoyl(2E,4S-Me) = CC[C@H](C)/C=C/C(=O)*; Leu(3R-OH) = CC(C)[C@@H](O)[C@H](N)C(=O)O; NH((S)CH(Me)CH2NMe2) = C[C@@H](CN(C)C)N*; NH(1-CH2NMe2-cBu) = CN(C)CC1(N*)CCC1; Gly(octyl) = CCCCCCCC[C@H](N)C(=O)O; Oxazole4CO(2-Me) = Cc1nc(C(=O)*)co1; X3 = O=C(c1coc(-c2ccccc2)n1)*; Morpholide = C1CN(*)CCO1; X24 = CN1CC2(C1)CN(*)C2; X25 = CN(C)CC1(N*)CCCC1; X23 = CN1CCC12CN(*)C2; Aib = CC(C)(N)C(=O)O; βAla = NCCC(=O)O

Key:
[1] = tested on: Axenically grown Leishmania donovani amastigotes (strain MHOM/ET/67/L82); assay: Axenic Leishmania donovani amastigote resazurin assay; format: cell-based
Experimental: (§1) Tests were done in triplicate.
Axenically grown Leishmania donovani amastigotes (strain MHOM/ET/67/L82) were grown and tests were done as previously described using the resazurin assay (Räz B et al. Acta Tropica 1997, 68:139-147). The plates were developed for 2-4 hours and read on a Spectramax Gemini XS micro plate fluorometer (Molecular Devices Cooperation) using an excitation wavelength of 536 nm and emission wavelength of 588 nm. Fluorescence development was measured and expressed as percentage of the negative control. […] Data were transferred to the graphic programme Softmax Pro (Molecular Devices), with which IC50 values were calculated.

[2] = Cytotoxicity assay on L6-cells (Alamar Blue); conditions: rat, Cytotox L6, Cytotoxicity against rat myoblast cells (L6)
Experimental: Tests were done in triplicate. IC50 values against the parasites as well as cytotoxic effects against rat myoblast (L6-cells) were determined by serial dilution and repeated twice.
After 68 h of incubation under humidified 5% CO2 atmosphere, 10 µl of the Alamar blue marker was added to all wells. The plates were incubated for an additional 2 h. […] The IC50S were calculated by Softmax Pro software (Molecular Devices Cooperation, Sunnyvale, CA). […] Cytotoxicity was measured against rat myoblast cells (Cytotox L6).

[3] = tested on: Trypanosoma cruzi trypomastigote forms (Tulahuen strain); assay: Intracellular Trypanosoma cruzi assay in L6-cells, beta-galactosidase/CPRG readout; format: cell-based
Experimental: as §1
Trypanosoma cruzi trypomastigote forms (Tulahuen strain C2C4 containing β-galactosidase (Lac Z) gene) were cultured as described by Buckner et al. (Buckner FS et al. Antimicrob Agents Ch1996; 40: 2592-2597) in rat myoblast cells (L6-cells). […] After incubation, the substrate chlorophenyl red β-D-galactopyranoside agent CPRG/Nonident was added to all wells and a color change was developed within 2 to 6 h. The plates were read photometrically at 540 nm (Molecular Devices). Data were evaluated and IC50 values calculated using Softmax Pro software (Molecular Devices).

Plasmodium falciparum = assay: 3H-hypoxanthine incorporation assay against Plasmodium falciparum; format: cell-based; conditions: In vitro inhibition, read-out: P.falc NF5
Experimental: as §1
IC50 values were calculated by linear interpolation.

[4] = tested on: Trypanosoma brucei rhodesiense (STIB 900 strain); assay: Alamar Blue assay against Trypanosoma brucei rhodesiense grown in axenic medium; format: cell-based
Experimental: as §1
Trypanosoma brucei rhodesiense (STIB 900) were grown in axenic medium as described by Baltz et al. (1985) The samples were tested using the Alamar Blue assay protocol (Baltz T et al. EMBO J 1985; 4:1273-1277) to determine the 50% inhibitory concentration (IC50). […] Melarsoprol (Arsobal®, Sanofi-Aventis, Switzerland) was used as a reference drug (IC50= 0.03 ± 0.01 µM). Its purity was over 95 %, as was certified by the supplier. The IC50 values were calculated by using Softmax Pro software (Molecular Devices Cooperation, Sunnyvale, CA).

[5] = In vitro inhibition, read-out: L.don. ax
[6] = In vitro inhibition, read-out: T.cruzi.
[7] = In vitro inhibition, read-out: T.b.rhod.

Row | SMILES | IC50 [1, 5] | IC50 at 70 h [2] | IC50 [3, 6] | IC50 [4, 7] | other results
1 | CCCCCCCC[C@H](NC(=O)[C@@H]1CCCN1C(=O)/C=C/[C@@H](C)CC)C(=O)N[C@@H](CO)C(=O)NC(C)(C)C(=O)N[C@@H](CC(C)C)C(=O)N[C@@H](CC(C)C)C(=O)NC(C)(C)C(=O)NC(C)(C)C(=O)NCCC(=O)N[C@@H](C)CN(C)C (stereo in doubt) [Compound 5521, (2S)-N-[(1S)-1-[(1-{[(1S)-1-{[(1S)-1-{[1-({1-[(2-{[(2S)-1-(dimethylamino)propan-2-yl]carbamoyl}ethyl)carbamoyl]-1-methylethyl}carbamoyl)-1-methylethyl]carbamoyl}-3-methylbutyl]carbamoyl}-3-methylbutyl]carbamoyl}-1-methylethyl)carbamoyl]-2-hydroxyethyl]-2-{[(2S)-1-[(2E,4S)-4-methylhex-2-enoyl]pyrrolidin-2-yl]formamido}decanamide] | 3.6 nM | 1650 nM | 807 nM | 1.3 nM | IC50 (Plasmodium falciparum): 8.5 nM
2 | O=C(Cn1ccnc1[N+](=O)[O-])NCc1ccccc1 [Benznidazol] | – | – | – | – | IC50 ([3]; TULAHUEN, In vitro inhibition, intracellular Trypanosoma cruzi, read-out: T.cruzi.): 2080 nM
3 | O=C(Cn1ccnc1[N+](=O)[O-])NCc1ccccc1 [Benznidazole, benznidazole] | – | – | – | – | IC50 ([3]; Trypanosoma cruzi, standard drug, T. cruzi Tulahuen C2C4 in L6-cells, read-out: IC50): 0.48 µg/mL
4 | CCCCCCCC[C@H](NC(=O)[C@@H]1CCCN1C(=O)/C=C/[C@@H](C)CC)C(=O)N[C@H](C(=O)NC(C)(C)C(=O)N[C@@H](CC(C)C)C(=O)N[C@@H](CC(C)C)C(=O)NC(C)(C)C(=O)NC(C)(C)C(=O)NCCC(=O)N[C@@H](C)CN(C)C)[C@@H](C)O [Compound 5520] ({Hexenoyl(2E,4S-Me)}-P[Gly(octyl)]T[Aib]LL[Aib][Aib][βAla]-{NH((S)CH(Me)CH2NMe2)}) | – | 930 nM | – | – | –
5 | CCCCCCCC[C@H](NC(=O)[C@@H]1CCCN1C(=O)/C=C/[C@@H](C)CC)C(=O)N[C@H](C(=O)NC(C)(C)C(=O)N[C@@H](CC(C)C)C(=O)N[C@@H](CC(C)C)C(=O)NC(C)(C)C(=O)NC(C)(C)C(=O)NCCC(=O)N1CCOCC1)[C@H](O)C(C)C [Compound 5572] ({Hexenoyl(2E,4S-Me)}-P[Gly(octyl)][Leu(3R-OH)][Aib]LL[Aib][Aib][βAla]-Morpholide) | – | 1420 nM | – | – | –
6 | CCCCCCCC[C@H](NC(=O)[C@@H]1CCCN1C(=O)c1coc(-c2ccccc2)n1)C(=O)N[C@@H](CC(C)C)C(=O)NC(C)(C)C(=O)N[C@@H](CC(C)C)C(=O)N[C@@H](CC(C)C)C(=O)NC(C)(C)C(=O)NC(C)(C)C(=O)NCCC(=O)N[C@@H](C)CN(C)C [Compound 5906, (2S)-N-[(1S)-1-[(1-{[(1S)-1-{[(1S)-1-{[1-({1-[(2-{[(2S)-1-(dimethylamino)propan-2-yl]carbamoyl}ethyl)carbamoyl]-1-methylethyl}carbamoyl)-1-methylethyl]carbamoyl}-3-methylbutyl]carbamoyl}-3-methylbutyl]carbamoyl}-1-methylethyl)carbamoyl]-3-methylbutyl]-2-{[(2S)-1-(2-phenyl-1,3-oxazole-4-carbonyl)pyrrolidin-2-yl]formamido}decanamide] (X3-P[Gly(octyl)]L[Aib]LL[Aib][Aib][βAla]-{NH((S)CH(Me)CH2NMe2)}) | – | 445 nM | – | – | –
7 | CCCCCCCC[C@H](NC(=O)[C@@H]1CCCN1C(=O)CCOCCOCCOCCOCCOCCOCCOCCOCCOCCOCCOCCOC)C(=O)N[C@@H](CC(C)C)C(=O)NC(C)(C)C(=O)N[C@@H](CC(C)C)C(=O)N[C@@H](CC(C)C)C(=O)NC(C)(C)C(=O)NC(C)(C)C(=O)NCCC(=O)N[C@@H](C)CN(C)C [Compound 6067, (2S)-N-[(1S)-1-[(1-{[(1S)-1-{[(1S)-1-{[1-({1-[(2-{[(2S)-1-(dimethylamino)propan-2-yl]carbamoyl}ethyl)carbamoyl]-1-methylethyl}carbamoyl)-1-methylethyl]carbamoyl}-3-methylbutyl]carbamoyl}-3-methylbutyl]carbamoyl}-1-methylethyl)carbamoyl]-3-methylbutyl]-2-{[(2S)-1-(2,5,8,11,14,17,20,23,26,29,32,35-dodecaoxaoctatriacontanoyl)pyrrolidin-2-yl]formamido}decanamide] ({CH3O(CH2CH2O)11CH2CH2CO}-P[Gly(octyl)]L[Aib]LL[Aib][Aib][βAla]-{NH((S)CH(Me)CH2NMe2)}) | – | 4640 nM | – | – | –
8 | CCCCCCCC[C@H](NC(=O)[C@@H]1CCCN1C(=O)c1coc(C)n1)C(=O)N[C@@H](CC(C)C)C(=O)NC(C)(C)C(=O)N[C@@H](CC(C)C)C(=O)N[C@@H](CC(C)C)C(=O)NC(C)(C)C(=O)NC(C)(C)C(=O)NCCC(=O)NC1(CN(C)C)CCC1 [Compound 6253, (2S)-N-[(1S)-1-[(1-{[(1S)-1-{[(1S)-1-({1-[(1-{[2-({1-[(dimethylamino)methyl]cyclobutyl}carbamoyl)ethyl]carbamoyl}-1-methylethyl)carbamoyl]-1-methylethyl}carbamoyl)-3-methylbutyl]carbamoyl}-3-methylbutyl]carbamoyl}-1-methylethyl)carbamoyl]-3-methylbutyl]-2-{[(2S)-1-(2-methyl-1,3-oxazole-4-carbonyl)pyrrolidin-2-yl]formamido}decanamide] ({Oxazole4CO(2-Me)}-P[Gly(octyl)]L[Aib]LL[Aib][Aib][βAla]-{NH(1-CH2NMe2-cBu)}) | 46800 nM | – | 68.4 nM | < 0.9 nM | –
9 | CCCCCCCC[C@H](NC(=O)[C@@H]1CCCN1C(=O)c1coc(C)n1)C(=O)N[C@@H](CC(C)C)C(=O)NC(C)(C)C(=O)N[C@@H](CC(C)C)C(=O)N[C@@H](CC(C)C)C(=O)NC(C)(C)C(=O)NC(C)(C)C(=O)NCCC(=O)NC1(CN(C)C)CCCC1 [Compound 6254, (2S)-N-[(1S)-1-[(1-{[(1S)-1-{[(1S)-1-({1-[(1-{[2-({1-[(dimethylamino)methyl]cyclopentyl}carbamoyl)ethyl]carbamoyl}-1-methylethyl)carbamoyl]-1methylethyl}carbamoyl)-3-methylbutyl]carbamoyl}-3-methylbutyl]carbamoyl}-1-methylethyl)carbamoyl]-3-methylbutyl]-2-{[(2S)-1-(2-methyl-1,3-oxazole-4-carbonyl)pyrrolidin-2-yl]formamido}decanamide] ({Oxazole4CO(2-Me)}-P[Gly(octyl)]L[Aib]LL[Aib][Aib][βAla]-X25) | 13900 nM | – | 34.6 nM | < 0.8 nM | –
10 | CCCCCCCC[C@H](NC(=O)[C@@H]1CCCN1C(=O)c1coc(C)n1)C(=O)N[C@@H](CC(C)C)C(=O)NC(C)(C)C(=O)N[C@@H](CC(C)C)C(=O)N[C@@H](CC(C)C)C(=O)NC(C)(C)C(=O)NC(C)(C)C(=O)NCCC(=O)N1CC2(CCN2C)C1 [Compound 6255, (2S)-2-{[(2S)-1-(2-methyl-1,3-oxazole-4-carbonyl)pyrrolidin-2-yl]formamido}-N-[(1S)-3-methyl-1-[(1-methyl-1-[(1S)-3-methyl-1-{[(1S)-3-methyl-1-{{[1-methyl-1-({1-methyl-1-[(3-{1-methyl-1,6-diazaspiro[3.3]heptan-6-yl}-3-oxopropyl)carbamoyl]ethyl}carbamoyl)ethyl]carbamoyl}butyl]carbamoyl}butyl]carbamoyl}ethyl)carbamoyl]butyl]decanamide] ({Oxazole4CO(2-Me)}-P[Gly(octyl)]L[Aib]LL[Aib][Aib][βAla]-X23) | 4090 nM | 7170 nM | 3710 nM | 461 nM | –
11 | CCCCCCCC[C@H](NC(=O)[C@@H]1CCCN1C(=O)c1coc(C)n1)C(=O)N[C@@H](CC(C)C)C(=O)NC(C)(C)C(=O)N[C@@H](CC(C)C)C(=O)N[C@@H](CC(C)C)C(=O)NC(C)(C)C(=O)NC(C)(C)C(=O)NCCC(=O)N1CC2(CN(C)C2)C1 [Compound 6256, (2S)-2-{[(2S)-1-(2-methyl-1,3-oxazole-4-carbonyl)pyrrolidin-2-yl]formamido}-N-[(1S)-3-methyl-1-[(1-methyl-1-[(1S)-3-methyl-1-{[(1S)-3-methyl-1-{{[1-methyl-1-({1-methyl-1-[(3-{6-methyl-2,6-diazaspiro[3.3]heptan-2-yl}-3-oxopropyl)carbamoyl]ethyl}carbamoyl)ethyl]carbamoyl}butyl]carbamoyl}butyl]carbamoyl}ethyl)carbamoyl]butyl]decanamide] ({Oxazole4CO(2-Me)}-P[Gly(octyl)]L[Aib]LL[Aib][Aib][βAla]-X24) | 8670 nM | > 8060 nM | 4010 nM | 316 nM | –
12 | Nc1nc(N)nc(Nc2ccc([As]3SCC(CO)S3)cc2)n1 (stereo not shown) [Melarsoprol, melarsoprol] | – | – | – | – | IC50 ([4]; read-out: T.b.rhod.): 7 nM; IC50 ([4]; reference drug, T. b. rhodesiense STIB 900, Alamar Blue, read-out: IC50): 30 ± 10 nM
13 | CCCCCCCCCCCCCCCCOP(=O)([O-])OCC[N+](C)(C)C [Miltfosine] | – | – | – | – | IC50 ([1]; Leishmania donovani, reference drug, axenic L. donovani amastigotes, resazurin assay, read-out: IC50): 0.241 µg/mL
